According to ChEMBL document CHEMBL1201862, “PubChem BioAssay data set” (2004):
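Assay format: 96-well plates, 48-hour exposure. GI50 = concentration required for 50% inhibition of growth.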 Activity calls are given as the source filed them. Cut-off read from the data, not from the text of the source: active = GI50 up to about 1.1 µM and inactive = higher.

Assays:
Assay in all cases: DTP human tumour cell line panel, 48 h
[1] = system: MDA-N
[2] = system: KM-20L2
[3] = system: COLO 205
[4] = system: DMS-273

CCOC(=O)/C=C/CC(C)(C)COC(C)=O
GI50 [1]: 7.48 µM (inactive)

O=C1C(Cl)N(c2cccc([N+](=O)[O-])c2)C1c1c[nH]c2ccccc12 (centres undefined)
GI50 [2]: 19.9 µM (inactive) | GI50 [3]: 22.5 µM (inactive)

O=C1NP23(OCCO2)Oc2ccccc2C3(C(F)(F)F)O1 (centres undefined)
GI50 [4]: > 100 µM (inactive)
